Assays:
Assay type in all cases: cell-based
[1] = system: Microsporum canis; experiment: Antifungal activity in vitro, resazurin growth inhibition: Microsporum canis (B68128)
In short: (§1)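 Resazurin conversion to fluorescent resorufin (ex 550/em 590 nm) served as the growth readout. Compounds spanned 2- or 4-fold serial dilutions with 64 μM top in-test concentration; inoculum 10^3 cfu per well in MOPS-buffered RPMI-1640 (pH 7.0, 2% glucose). Incubation species-dependent, dermatophytes at 27° C. for ≥1 week.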

[2] = system: Trichophyton mentagrophytes; experiment: Antifungal activity in vitro, resazurin growth inhibition: Trichophyton mentagrophytes (B70554)
In short: as §1

[3] = system: Trichophyton rubrum; experiment: Antifungal activity in vitro, resazurin growth inhibition: Trichophyton rubrum (B68183)
In short: as §1

[4] = system: Scedosporium apiospermum; experiment: Antifungal activity in vitro, resazurin growth inhibition: Scedosporium apiospermum (IHEM3817)
Protocol: (§2) The standard susceptibility screen is performed in 96-well plates (U-bottom, Greiner Bio-One). Serial dilutions (2-fold or 4-fold) of 20 mM compound stock solutions are made in 100% DMSO, followed by an intermediate dilution step in water. These serial dilutions (10 μl) are then spotted onto test-plates that can be stored in the dark at 4° C. for a maximum period of 2 weeks. An adequate broad dose-range is included with 64 μM as the highest in-test concentration. The culture medium RPMI-1640 is supplemented with L-glutamine, 2% glucose and buffered with 3-(N-morpholino)-propanesulfonic acid (MOPS) at pH 7.0±0.1.
(§3) The different fungal species/isolates (Table 3a) are cryopreserved and 1/1000 diluted in medium just prior to use. A standard inoculum of 200 μl containing 10^3 colony-forming unit (cfu) is then added to each well. A positive control (100% growth=fungal culture without antifungal) and a negative control (0% growth ═RPMI-MOPS medium) are included on each plate. Optimal incubation time and temperature are dependent on the fungal species and vary from 24 h for yeasts (37° C.) to one week or more for dermatophytes (27° C.). Inhibition of fungal growth is measured after adding 10 μl of 0.005% (w/v) resazurin (Sigma Aldrich) to each well, based on the principle that living cells convert the non-fluorescent blue resazurin into the pink and fluorescent resorufin, allowing fluorimetric reading (λex 550 nm and λem 590 nm) after an additional incubation period (‘resa’ time mentioned in Table 3a).

[5] = system: Scedosporium prolificans; experiment: Antifungal activity in vitro, resazurin growth inhibition: Scedosporium prolificans (IHEM21157)
Protocol: as §2, §3

[6] = system: Sporothrix schenkii; experiment: Antifungal activity in vitro, resazurin growth inhibition: Sporothrix schenkii (B62482)
In short: (§4)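 Broth microdilution: RPMI-1640/L-Gln/2% glucose, MOPS pH 7.0±0.1; 10^3 cfu/well; top concentration 64 μM, 2- or 4-fold steps. Dermatophytes at 27° C., one week or more. Resazurin 0.005% (w/v) added, fluorescence 550/590 nm.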

[7] = system: Aspergillus fumigatus; experiment: Antifungal activity in vitro, resazurin growth inhibition: Aspergillus fumigatus (B42928)
In short: as §4

[8] = system: Candida parapsilosis; experiment: Antifungal activity in vitro, resazurin growth inhibition: Candida parapsilosis (B66126)
In short: as §4

[9] = system: Cryptococcus neoformans; experiment: Antifungal activity in vitro, resazurin growth inhibition: Cryptococcus neoformans (B66663)
In short: as §4

[10] = system: Rhizopus oryzae; experiment: Antifungal activity in vitro, resazurin growth inhibition: Rhizopus oryzae (IHEM5223)
Protocol: as §2, §3

[11] = system: Rhizomucor miehei; experiment: Antifungal activity in vitro, resazurin growth inhibition: Rhizomucor miehei (IHEM13391)
Protocol: as §2, §3

SMILES	Inf. B: Microsporum canis B68128, pIC50 [1]	Inf. G: Trichophyton mentagrophytes B70554, pIC50 [2]	Inf. C: Trichophyton rubrum B68183, pIC50 [3]	Inf. H: Scedosporium apiospermum IHEM3817, pIC50 [4]	Inf. I: Scedosporium prolificans IHEM21157, pIC50 [5]	Inf. A: Sporothrix schenkii B62482, pIC50 [6]	Inf. E: Aspergillus fumigatus B42928, pIC50 [7]	Inf. D: Candida parapsilosis B66126, pIC50 [8]	Inf. F: Cryptococcus neoformans B66663, pIC50 [9]	Inf. J: Rhizopus oryzae IHEM5223, pIC50 [10]	Inf. K: Rhizomucor miehei IHEM13391, pIC50 [11]
Cc1cccc2c1CN=C(c1ccc(C(F)(F)F)nc1)c1cccn1-2 [Compound 88]	6.63	5.80	7.10	5.28	6.14	4.85	<4.19	<4.19	<4.19	<4.19	<4.19
FC(F)(F)c1ccc(C2=NCc3c(Cl)cccc3-n3cccc32)cn1 [Compound 89]	6.14	6.23	6.75	<4.19	6.28	<4.19	5.70	6.17	<4.19	<4.19	<4.19
CC(=O)c1ccc(C2=NCc3c(F)cc(F)cc3-n3cccc32)cn1 [Compound 94]	5.71	5.92	6.19	<4.19	<4.19	<4.19	5.13	4.59	4.58	<4.19	<4.19
FC(F)(F)c1ncc(C2=NCc3c(Cl)cccc3-n3cccc32)cn1 [Compound 102]	6.34	6.01	6.84	<4.19	5.18	4.59	5.05	<4.19	<4.19	<4.19	<4.19
Clc1cccc2c1CN=C(c1cnc3c(c1)CCC3)c1cccn1-2 [Compound 105]	6.67	6.91	6.87	7.52	8.00	5.70	5.76	4.91	5.30	<4.19	4.23
c1ccc2c(c1)CN=C(c1cc3ccccc3o1)c1cccn1-2 [Compound 115]	7.02	7.28	7.47	<4.19	5.98	5.70	6.82	4.25	5.70	<4.19	4.88
Cc1cccc2c1CN=C(c1cc3ccccc3o1)c1cccn1-2 [Compound 116]	7.39	6.83	7.52	6.22	6.46	5.84	6.26	4.70	5.65	<4.19	4.81
Cc1cccc2c1-n1cccc1C(c1cc3ccccc3o1)=NC2 [Compound 117]	6.52	6.43	7.07	4.80	5.97	5.74	5.98	<4.19	5.77	<4.19	4.80

Next, values leading:

Inf. B: Microsporum canis B68128, pIC50 [1]	Inf. G: Trichophyton mentagrophytes B70554, pIC50 [2]	Inf. C: Trichophyton rubrum B68183, pIC50 [3]	Inf. H: Scedosporium apiospermum IHEM3817, pIC50 [4]	Inf. I: Scedosporium prolificans IHEM21157, pIC50 [5]	Inf. A: Sporothrix schenkii B62482, pIC50 [6]	Inf. E: Aspergillus fumigatus B42928, pIC50 [7]	Inf. D: Candida parapsilosis B66126, pIC50 [8]	Inf. F: Cryptococcus neoformans B66663, pIC50 [9]	Inf. J: Rhizopus oryzae IHEM5223, pIC50 [10]	Inf. K: Rhizomucor miehei IHEM13391, pIC50 [11]	SMILES
5.69	5.72	6.27	<4.19	5.28	5.10	5.75	<4.19	<4.19	<4.19	<4.19	FC(F)(F)c1ccc(C2=NCc3c(Cl)cc(Cl)cc3-n3cccc32)cn1 [Compound 91]
<4.19	<4.19	6.09	<4.19	<4.19	<4.19	<4.19	<4.19	<4.19	<4.19	<4.19	CC(=O)c1ccc(C2=NCc3c(Cl)cccc3-n3cccc32)cn1 [Compound 92]
6.31	5.44	5.92	4.90	5.48	5.16	5.06	4.87	5.53	<4.19	<4.19	Cn1ccc2cc(C3=NCc4c(Cl)cc(Cl)cc4-n4cccc43)ccc21 [Compound 107]
5.30	5.60	5.96	4.77	5.89	4.44	5.50	4.58	5.09	<4.49	<4.49	Cn1nnc2ccc(C3=NCc4c(Cl)cccc4-n4cccc43)cc21 [Compound 110]
5.69	5.31	6.09	5.77	6.77	4.41	5.76	<4.19	5.74	<4.19	4.53	Cn1nnc2ccc(C3=NCc4c(Cl)cc(Cl)cc4-n4cccc43)cc21 [Compound 111]
6.54	6.62	6.87	<4.19	6.17	6.00	6.30	5.61	6.40	<4.19	<4.19	Clc1ccc2c(c1)-n1cccc1C(c1cc3ccccc3o1)=NC2 [Compound 119]

Source: patent US9493468B2, “Antifungal 5,6-dihydro-4H-pyrrolo[1,2-a][1,4]benzo-diazepines and 6H-pyrrolo[1,2-a][1,4]benzodiazepines substituted with heterocyclic derivatives” (Janssen Pharmaceutica NV, priority 2011, dated 2016)
